According to ChEMBL document CHEMBL3885861, “Open TG-GATES”:

Organism: Rattus norvegicus
Assay: Open TG-GATES - Regimen: Daily Repeat
Assay type: toxicity, organism-based, Sprague-Dawley
Parameters: regimen Daily Repeat, gender Male, age 6 weeks
Settings: in vivo, po, 60 mg/kg, […], route gavage, dose level Middle; for KIDNEY_L / KIDNEY_R / KIDNEY_TOTAL: tissue Kidney; for LIVER: tissue Liver; for A/G / ALP / ALT / AST / BUN / CRE / Ca / Cl / DBIL / GLC / IP / K / LDH / Na / PL / RALB / TBIL / TC / TG / TP / gamma-GTP: tissue Plasma

CC(CN1c2ccccc2Sc2ccccc21)N(C)C (stereo unspecified) [PROMETHAZINE]
Lym (tissue Blood, time 28 day): 79.2%
MCH (tissue Blood, time 28 day): 19.6 pg
MCHC (tissue Blood, time 28 day): 34.9%
MCV (tissue Blood, time 28 day): 56.4 fL
Mono (tissue Blood, time 28 day): 1.8%
Neu (tissue Blood, time 28 day): 17.2%
PT (tissue Blood, time 28 day): 16.3 s
Plat (tissue Blood, time 28 day): 96 x10_4/uL
RBC (tissue Blood, time 28 day): 778.4 x10_4/ul
Ret (tissue Blood, time 28 day): 2.9%
WBC (tissue Blood, time 28 day): 96 x10_2/uL
KIDNEY_L (time 7 day): 1.1 g
KIDNEY_R (time 7 day): 1.1 g
KIDNEY_TOTAL (time 7 day): 2.2 g
KIDNEY_L (time 14 day): 1.2 g
KIDNEY_R (time 14 day): 1.2 g
KIDNEY_TOTAL (time 14 day): 2.4 g
KIDNEY_L (time 28 day): 1.4 g
KIDNEY_R (time 28 day): 1.4 g
KIDNEY_TOTAL (time 28 day): 2.8 g
LIVER (time 7 day): 13.5 g
LIVER (time 14 day): 14.9 g
LIVER (time 28 day): 17.3 g
A/G (time 7 day): 1.2
ALP (time 7 day): 1458.6 IU/L
ALT (time 7 day): 44 IU/L
AST (time 7 day): 71 IU/L
BUN (time 7 day): 20.6 mg/dL
CRE (time 7 day): 0.2 mg/dL
Ca (time 7 day): 10.7 mg/dL
Cl (time 7 day): 106.2 meq/L
DBIL (time 7 day): 0 mg/dL
GLC (time 7 day): 181.2 mg/dL
IP (time 7 day): 7 mg/dL
K (time 7 day): 4.4 meq/L
LDH (time 7 day): 143.4 IU/L
Na (time 7 day): 141.8 meq/L
PL (time 7 day): 144.4 mg/dL
RALB (time 7 day): 3 g/dL
TBIL (time 7 day): 0.006 mg/dL
TC (time 7 day): 75.4 mg/dL
TG (time 7 day): 106.2 mg/dL
TP (time 7 day): 5.6 g/dL
gamma-GTP (time 7 day): 2.2 IU/L
A/G (time 14 day): 1.2
ALP (time 14 day): 1448 IU/L
ALT (time 14 day): 46.6 IU/L
AST (time 14 day): 72.2 IU/L
BUN (time 14 day): 19 mg/dL
CRE (time 14 day): 0.2 mg/dL
Ca (time 14 day): 10.9 mg/dL
Cl (time 14 day): 106 meq/L
DBIL (time 14 day): 0 mg/dL
GLC (time 14 day): 182.2 mg/dL
IP (time 14 day): 6.9 mg/dL
K (time 14 day): 4.1 meq/L
LDH (time 14 day): 128.4 IU/L
Na (time 14 day): 142.4 meq/L
PL (time 14 day): 150.4 mg/dL
RALB (time 14 day): 3.2 g/dL
TBIL (time 14 day): 0.012 mg/dL
TC (time 14 day): 76 mg/dL
TG (time 14 day): 128.4 mg/dL
TP (time 14 day): 5.9 g/dL
gamma-GTP (time 14 day): 2.4 IU/L
A/G (time 28 day): 1.1
ALP (time 28 day): 1017.8 IU/L
ALT (time 28 day): 49.4 IU/L
AST (time 28 day): 69 IU/L
BUN (time 28 day): 18.8 mg/dL
CRE (time 28 day): 0.2 mg/dL
Ca (time 28 day): 10.8 mg/dL
Cl (time 28 day): 104 meq/L
DBIL (time 28 day): 0 mg/dL
GLC (time 28 day): 185.6 mg/dL
IP (time 28 day): 7 mg/dL
K (time 28 day): 3.7 meq/L
LDH (time 28 day): 158 IU/L
Na (time 28 day): 143.2 meq/L
PL (time 28 day): 152.4 mg/dL
RALB (time 28 day): 3.3 g/dL
TBIL (time 28 day): 0.026 mg/dL
TC (time 28 day): 79 mg/dL
TG (time 28 day): 105.2 mg/dL
TP (time 28 day): 6.3 g/dL
gamma-GTP (time 28 day): 2.2 IU/L
